The record followed here is the supplement of paper PMC11208160.

This series is described as follows: recombinant UMI read abundance after kanamycin selection (control-corrected) (log10(CPM+1)); higher = more efficient recombination; extreme values may be limits of the assay; sequences stand for … in AGTGCAGAGAAAATCGGCCAGTTTTCTCTGCCTGCAGTCCGCATGCCGTGGGACCCCTTGGGTTCTAACCTGTTGCCTAGATTTATGCAGCGGACTGCCTTTCTCCCAAAGTGATAAACCGG…AGGTTGGTTTCACT; site = the 11-nt donor. Here is the method:
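Pooled E. coli donor-specificity screen for the IS621 bridge recombinase. Each library member carries a reprogrammed 11-nt donor and a full-length LE bridge RNA expressed in cis from the natural promoter, with a paired donor-binding loop (8-nt LDG + 4-nt RDG) and a target-binding loop fixed to T5. It is co-electroporated with a T5 target plasmid; recombinase is induced with 0.07 mM IPTG and recombinants are selected on kanamycin. UMIs are counted as CPM, averaged over two biological replicates and corrected by the unselected control. Molecule = full bridge RNA written as DNA, built from the T5 scaffold: LDG = donor specificity nt 1-8, RDG = reverse complement of nt 8-11.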
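Note: IS621 bridge recombinase in Escherichia coli cells against a fixed T5 target plasmid.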

Regarding “ACTAGTGCATGGACCGGTTTTCCCGGTAATCCGTATTTGGT (site ACTAGTACTAC)”, the “recombinant UMI read abundance (log10)” value was 0.998.

Consider “ACTAGTGCATGGACCGGTTTTCCCGGTAATCCGTATTTGGT (site ACTAGTCCTAC)”, for which the “recombinant UMI read abundance (log10)” value came to 0.0182.

Regarding “ACTAGTGCATGGACCGGTTTTCCCGGTAATCCGTATTTGGT (site ACTAGTGCTAA)”, the “recombinant UMI read abundance (log10)” value is 0.00318.

As for “ACTAGTGCATGGACCGGTTTTCCCGGTAATCCGTATTTGGT (site ACTAGTGCTAC)”, the “recombinant UMI read abundance (log10)” value stood at 1.55.

On to “ACTAGTGCATGGACCGGTTTTCCCGGTAATCCGTATTTGGT (site ACTAGTGCTAG)”, for which the “recombinant UMI read abundance (log10)” value was determined as 0.699.

Turning to “ACTAGTGCATGGACCGGTTTTCCCGGTAATCCGTATTTGGT (site ACTAGTGCTAT)”, the “recombinant UMI read abundance (log10)” value stood at 1.2.

“ACTAGTGCATGGACCGGTTTTCCCGGTAATCCGTATTTGGT (site ACTAGTGCTCC)”: the “recombinant UMI read abundance (log10)” value was 0.0239.

Regarding “ACTAGTGCATGGACCGGTTTTCCCGGTAATCCGTATTTGGT (site ACTAGTGCTGC)”, the “recombinant UMI read abundance (log10)” value came out at 0.

As to “ACTAGTGCATGGACCGGTTTTCCCGGTAATCCGTATTTGGT (site ACTAGTGCTTC)”, the “recombinant UMI read abundance (log10)” value came to 0.0165.

Consider “ACTAGTGCATGGACCGGTTTTCCCGGTAATCCGTATTTGGT (site ACTAGTTCTAC)”, for which the “recombinant UMI read abundance (log10)” value is 0.264.

As to “ACTAGTGCATGGACCGGTTTTCCCGGTAATCCGTATTTGGT (site ACTATTGCTAC)”, the “recombinant UMI read abundance (log10)” value came to 0.975.

With “ACTAGTGCATGGACCGGTTTTCCCGGTAATCCGTATTTGGT (site ACTCGTGCTAC)”, the “recombinant UMI read abundance (log10)” value was 0.265.

Regarding “ACTAGTGCATGGACCGGTTTTCCCGGTAATCCGTATTTGGT (site ACTGGTGCTAC)”, the “recombinant UMI read abundance (log10)” value is 0.583.

Turning to “ACTAGTGCATGGACCGGTTTTCCCGGTAATCCGTATTTGGT (site ACTTGTGCTAC)”, the “recombinant UMI read abundance (log10)” value amounted to 0.26.

As to “ACTAGTGCATGGACCGGTTTTCCCGGTAATCCGTATTTGGT (site AGTAGTGCTAC)”, the “recombinant UMI read abundance (log10)” value was 0.424.

Take “ACTAGTGCATGGACCGGTTTTCCCGGTAATCCGTATTTGGT (site ATTAGTGCTAC)”: the “recombinant UMI read abundance (log10)” value stood at 1.01.

Take “ACTAGTGCATGGACCGGTTTTCCCGGTAATCCGTATTTGGT (site CCTAGTGCTAC)”: the “recombinant UMI read abundance (log10)” value stood at 0.821.

Take “ACTAGTGCATGGACCGGTTTTCCCGGTAATCCGTATTTGGT (site GCTAGTGCTAC)”: the “recombinant UMI read abundance (log10)” value came to 0.338.

Regarding “ACTAGTGCATGGACCGGTTTTCCCGGTAATCCGTATTTGGT (site TCTAGTGCTAC)”, the “recombinant UMI read abundance (log10)” value was 0.86.

“ACTAGTTCATGGACCGGTTTTCCCGGTAATCCGTATTTGGT (site ACTAGTACTAC)”: the “recombinant UMI read abundance (log10)” value was found to be 0.293.

On to “ACTAGTTCATGGACCGGTTTTCCCGGTAATCCGTATTTGGT (site ACTAGTCCTAC)”, for which the “recombinant UMI read abundance (log10)” value was determined as 0.0335.

Take “ACTAGTTCATGGACCGGTTTTCCCGGTAATCCGTATTTGGT (site ACTAGTGCTAC)”: the “recombinant UMI read abundance (log10)” value was 0.00523.

Turning to “ACTAGTTCATGGACCGGTTTTCCCGGTAATCCGTATTTGGT (site ACTAGTTCTAC)”, the “recombinant UMI read abundance (log10)” value was 1.89.

As for “ACTCCAGCATGGACCGGTTTTCCCGGTAATCCGTATTTGCG (site ACTCCAGCTCG)”, the “recombinant UMI read abundance (log10)” value stood at 0.0064.

Regarding “ACTCCTGCATGGACCGGTTTTCCCGGTAATCCGTATTTGAC (site ACTCCTGCTGT)”, the “recombinant UMI read abundance (log10)” value was 0.671.

For “ACTCGAACATGGACCGGTTTTCCCGGTAATCCGTATTTGAG (site ACTAGAACTCT)”, the “recombinant UMI read abundance (log10)” value amounted to 0.00419.

Consider “ACTCGAACATGGACCGGTTTTCCCGGTAATCCGTATTTGAG (site ACTCGAACTCT)”, for which the “recombinant UMI read abundance (log10)” value came out at 1.16.

For the sequence “ACTCGAACATGGACCGGTTTTCCCGGTAATCCGTATTTGAG (site ACTGGAACTCT)”, the “recombinant UMI read abundance (log10)” value worked out at 0.00958.

“ACTCGAACATGGACCGGTTTTCCCGGTAATCCGTATTTGAG (site ACTTGAACTCT)”: the “recombinant UMI read abundance (log10)” value stood at 0.00429.

On to “ACTCGGCCATGGACCGGTTTTCCCGGTAATCCGTATTTGGT (site ACTCGGCCTAC)”, for which the “recombinant UMI read abundance (log10)” value came to 0.00855.

Turning to “ACTCTCCCATGGACCGGTTTTCCCGGTAATCCGTATTTGGA (site ACTCTCCCTTC)”, the “recombinant UMI read abundance (log10)” value came out at 0.0237.

Consider “ACTGAAGCATGGACCGGTTTTCCCGGTAATCCGTATTTGTA (site ACTGAAGCTTA)”, for which the “recombinant UMI read abundance (log10)” value was 2.5.

For “ACTGAGACATGGACCGGTTTTCCCGGTAATCCGTATTTGGT (site AATGAGACTAC)”, the “recombinant UMI read abundance (log10)” value was found to be 0.158.

For “ACTGAGACATGGACCGGTTTTCCCGGTAATCCGTATTTGGT (site ACTGAGACTAC)”, the “recombinant UMI read abundance (log10)” value turned out to be 1.53.

As to “ACTGAGACATGGACCGGTTTTCCCGGTAATCCGTATTTGGT (site AGTGAGACTAC)”, the “recombinant UMI read abundance (log10)” value stood at 0.0694.

For the sequence “ACTGAGACATGGACCGGTTTTCCCGGTAATCCGTATTTGGT (site ATTGAGACTAC)”, the “recombinant UMI read abundance (log10)” value was determined as 0.541.

In the case of “ACTGATGCATGGACCGGTTTTCCCGGTAATCCGTATTTGAC (site ACTGATGCTGT)”, the “recombinant UMI read abundance (log10)” value came to 2.08.

For the sequence “ACTGCACCATGGACCGGTTTTCCCGGTAATCCGTATTTGAG (site ACTGCACCTCT)”, the “recombinant UMI read abundance (log10)” value was determined as 0.0235.

For “ACTGCTACATGGACCGGTTTTCCCGGTAATCCGTATTTGGT (site ACTGCTACTAC)”, the “recombinant UMI read abundance (log10)” value worked out at 0.194.

For the sequence “ACTGTATCATGGACCGGTTTTCCCGGTAATCCGTATTTGCC (site ACAGTATCTTG)”, the “recombinant UMI read abundance (log10)” value was found to be 0.

On to “ACTGTATCATGGACCGGTTTTCCCGGTAATCCGTATTTGCC (site ACTGTATCTGG)”, for which the “recombinant UMI read abundance (log10)” value amounted to 2.92.

“ACTTACTCATGGACCGGTTTTCCCGGTAATCCGTATTTGAC (site ACTTACTCTGT)”: the “recombinant UMI read abundance (log10)” value is 2.81.

For the sequence “ACTTCGACATGGACCGGTTTTCCCGGTAATCCGTATTTGCA (site ACTTCGACTTG)”, the “recombinant UMI read abundance (log10)” value is 1.84.

For “ACTTCTGCATGGACCGGTTTTCCCGGTAATCCGTATTTGCC (site ACTTCTGCTGG)”, the “recombinant UMI read abundance (log10)” value is 1.76.

With “ACTTCTTCATGGACCGGTTTTCCCGGTAATCCGTATTTGTC (site ACTTCTTCTGA)”, the “recombinant UMI read abundance (log10)” value turned out to be 0.

With “ACTTGCTCATGGACCGGTTTTCCCGGTAATCCGTATTTGTT (site ACTTGCTCTAA)”, the “recombinant UMI read abundance (log10)” value stood at 0.824.

As to “AGAAAAGCATGGACCGGTTTTCCCGGTAATCCGTATTTGCT (site AGAAAAGCTAG)”, the “recombinant UMI read abundance (log10)” value is 2.12.

“AGAAAAGCATGGACCGGTTTTCCCGGTAATCCGTATTTGCT (site AGAAACGCTAG)”: the “recombinant UMI read abundance (log10)” value came out at 0.464.

For the sequence “AGAAAAGCATGGACCGGTTTTCCCGGTAATCCGTATTTGCT (site AGAAAGGCTAG)”, the “recombinant UMI read abundance (log10)” value was 1.38.

For the sequence “AGAAAAGCATGGACCGGTTTTCCCGGTAATCCGTATTTGCT (site AGAAATGCTAG)”, the “recombinant UMI read abundance (log10)” value stood at 0.

Regarding “AGAAAGACATGGACCGGTTTTCCCGGTAATCCGTATTTGTA (site AGAAAGACTTA)”, the “recombinant UMI read abundance (log10)” value is 2.51.

On to “AGAAAGACATGGACCGGTTTTCCCGGTAATCCGTATTTGTA (site AGGAAGACTTG)”, for which the “recombinant UMI read abundance (log10)” value amounted to 0.

With “AGAAAGCCATGGACCGGTTTTCCCGGTAATCCGTATTTGCT (site AGAAAGACTAG)”, the “recombinant UMI read abundance (log10)” value came to 0.

For the sequence “AGAAAGCCATGGACCGGTTTTCCCGGTAATCCGTATTTGCT (site AGAAAGCCTAG)”, the “recombinant UMI read abundance (log10)” value came out at 0.

Turning to “AGAAAGCCATGGACCGGTTTTCCCGGTAATCCGTATTTGCT (site AGAAAGGCTAG)”, the “recombinant UMI read abundance (log10)” value is 0.

Take “AGAAAGCCATGGACCGGTTTTCCCGGTAATCCGTATTTGCT (site AGAAAGTCTAG)”: the “recombinant UMI read abundance (log10)” value was found to be 2.3.

In the case of “AGAACAACATGGACCGGTTTTCCCGGTAATCCGTATTTGAT (site AGAACAACTAT)”, the “recombinant UMI read abundance (log10)” value was found to be 1.63.

Consider “AGAACAACATGGACCGGTTTTCCCGGTAATCCGTATTTGCT (site TTTGTCCCTCC)”, for which the “recombinant UMI read abundance (log10)” value turned out to be 0.00956.

Turning to “AGAACATCATGGACCGGTTTTCCCGGTAATCCGTATTTGCG (site AGAACATCTCG)”, the “recombinant UMI read abundance (log10)” value was determined as 2.3.

Turning to “AGAACCCCATGGACCGGTTTTCCCGGTAATCCGTATTTGGT (site AGAACCCCTAC)”, the “recombinant UMI read abundance (log10)” value is 0.545.

“AGAACGGCATGGACCGGTTTTCCCGGTAATCCGTATTTGCT (site AGAAAGGCTAG)”: the “recombinant UMI read abundance (log10)” value was 1.08.

Regarding “AGAACGGCATGGACCGGTTTTCCCGGTAATCCGTATTTGCT (site AGAACGGCTAG)”, the “recombinant UMI read abundance (log10)” value is 2.35.

In the case of “AGAACGGCATGGACCGGTTTTCCCGGTAATCCGTATTTGCT (site AGAAGGGCTAG)”, the “recombinant UMI read abundance (log10)” value was 0.

With “AGAACGGCATGGACCGGTTTTCCCGGTAATCCGTATTTGCT (site AGAATGGCTAG)”, the “recombinant UMI read abundance (log10)” value was found to be 0.

For “AGAACTACATGGACCGGTTTTCCCGGTAATCCGTATTTGAC (site AGAACTACTGT)”, the “recombinant UMI read abundance (log10)” value is 2.15.
